Laboratory results as given in patent US7256187B2, “Rifamycin C-11 oxime derivatives effective against drug-resistant microbes” (Cumbre Pharmaceuticals Inc., priority 2004, dated 2007).
In brackets after ≈: the same amount, converted by molar mass.

Experiments:
Type in all cases: cell-based
[1] = system: Staphylococcus aureus ATCC29213; experiment: MIC, microbroth dilution; conditions: Staphylococcus aureus ATCC29213, rifS; read-out: Antimicrobial activity (MIC)
[2] = system: Staphylococcus aureus ATCC29213 rpoB^D417Y; experiment: microbe, parasite or virus in culture; conditions: Staphylococcus aureus ATCC29213 rpoB^D417Y, rifR; read-out: Antimicrobial activity (MIC)
Experimental: (§1) Representative compounds were assayed for antimicrobial activity as follows: Minimum Inhibitory Concentrations (“MICs”) were determined by the microbroth dilution method as per NCCLS guidelines (National Committee for Clinical Laboratory Standards. 2000. Methods for dilution antimicrobial susceptibility tests for bacteria that grow aerobically, 5th ed. M7-A5. National Committee for Clinical Laboratory Standards, Wayne, Pa.), except that all growth incubations were conducted at 37° C. Bacterial cultures were tested in the following bacteriological media: S. aureus, S. epidermidis, and E. coli in Cation-Adjusted Mueller-Hinton Broth, S. pneumoniae in THY Broth supplemented with 1 mg/mL catalase under 5% CO2 atmosphere, S. pyogenes in THY Broth, E. faecalis in BHI Broth, H. influenzae in BHI Broth supplemented with 0.75 μL of 1 mg/mL NAD and 150 μL of 1 mg/ml hematin per 5 mL, and M. smegmatis in Middlebrook Broth plus ADC Enrichment.
(§2) S. aureus ATCC 29213 RpoB^H418Y is a rifampin-resistant strain with a mutation in the RpoB gene of RNA polymerase. […] S. aureus EN1252a gyrA^S84L grlA^S80F is a quinolone-resistant strain due to double gene mutations of DNA gyrase and topoisomerase IV.

[3] = system: Staphylococcus aureus ATCC29213 rpoB^H418Y; experiment: microbe, parasite or virus in culture; conditions: Staphylococcus aureus ATCC29213 rpoB^H418Y, rifR; read-out: Antimicrobial activity (MIC)
Experimental: as §1, §2

[4] = system: Staphylococcus aureus EN1252a gyrA^S84L grlA^S80F; experiment: microbe, parasite or virus in culture; conditions: Staphylococcus aureus EN1252a gyrA^S84L grlA^S80F, cipR; read-out: Antimicrobial activity (MIC)
Experimental: as §1, §2

[5] = system: Staphylococcus epidermidis ATCC12228; experiment: MIC, microbroth dilution; conditions: Staphylococcus epidermidis ATCC12228, rifS; read-out: Antimicrobial activity (MIC)
[6] = system: Streptococcus pneumoniae ATCC6303; experiment: MIC, microbroth dilution; conditions: Streptococcus pneumoniae ATCC6303, rifS; read-out: Antimicrobial activity (MIC)
[7] = system: Streptococcus pyogenes ATCC19615; experiment: MIC, microbroth dilution; conditions: Streptococcus pyogenes ATCC19615, rifS; read-out: Antimicrobial activity (MIC)
[8] = system: Enterococcus faecalis ATCC29212; experiment: MIC, microbroth dilution; conditions: Enterococcus faecalis ATCC29212, rifS; read-out: Antimicrobial activity (MIC)
[9] = system: Haemophilus influenzae ATCC10211; experiment: MIC, microbroth dilution; conditions: Haemophilus influenzae ATCC10211, rifS; read-out: Antimicrobial activity (MIC)
[10] = system: Escherichia coli ATCC25922; experiment: MIC, microbroth dilution; conditions: Escherichia coli ATCC25922, rifS; read-out: Antimicrobial activity (MIC)
[11] = system: Mycobacterium smegmatis ATCC700084; experiment: MIC, microbroth dilution; conditions: Mycolicibacterium smegmatis; Mycobacterium smegmatis ATCC700084, rifS; read-out: Antimicrobial activity (MIC)

## CO[C@H]1/C=C/O[C@@]2(C)Oc3c(C)c(O)c4c(c3/C2=N/OCCN2CCOCC2)C(=O)C=C(NC(=O)/C(C)=C\C=C\[C@H](C)[C@H](O)[C@@H](C)[C@@H](O)[C@@H](C)[C@H](OC(C)=O)[C@@H]1C)C4=O [Example 24]
[1]
  MIC: 0.004 to 0.5 µg/mL (≈ 0.00485 to 0.607 µM)
[2]
  MIC: 0.25 to 32 µg/mL (≈ 0.303 to 38.8 µM)
[3]
  MIC: 0.125 to 16 µg/mL (≈ 0.152 to 19.4 µM)
[4]
  MIC: 0.004 to 0.5 µg/mL (≈ 0.00485 to 0.607 µM)
[5]
  MIC: 0.0005 to 0.063 µg/mL (≈ 0.000607 to 0.0765 µM)
[6]
  MIC: 0.0002 to 0.125 µg/mL (≈ 0.000243 to 0.152 µM)
[7]
  MIC: 0.0005 to 0.063 µg/mL (≈ 0.000607 to 0.0765 µM)
[8]
  MIC: 2 to 32 µg/mL (≈ 2.43 to 38.8 µM)
[9]
  MIC: 0.03 to 2 µg/mL (≈ 0.0364 to 2.43 µM)
[10]
  MIC: 0.125 to 8 µg/mL (≈ 0.152 to 9.71 µM)
[11]
  MIC: 0.5 to 64 µg/mL (≈ 0.607 to 77.7 µM)

## CO[C@H]1/C=C/O[C@@]2(C)Oc3c(C)c(O)c4c(c3/C2=N/OCCN2CCN(Cc3ccccc3)CC2)C(=O)C=C(NC(=O)/C(C)=C\C=C\[C@H](C)[C@H](O)[C@@H](C)[C@@H](O)[C@@H](C)[C@H](OC(C)=O)[C@@H]1C)C4=O [Example 25, 11-Deoxy-11-[2-(4-benzylpiperazin-1-yl)ethoxyimino]rifamycin S]
[1]
  MIC: 0.004 to 0.5 µg/mL (≈ 0.00438 to 0.548 µM)
[2]
  MIC: 0.25 to 32 µg/mL (≈ 0.274 to 35 µM)
[3]
  MIC: 0.125 to 16 µg/mL (≈ 0.137 to 17.5 µM)
[4]
  MIC: 0.004 to 0.5 µg/mL (≈ 0.00438 to 0.548 µM)
[5]
  MIC: 0.0005 to 0.063 µg/mL (≈ 0.000548 to 0.069 µM)
[6]
  MIC: 0.0002 to 0.125 µg/mL (≈ 0.000219 to 0.137 µM)
[7]
  MIC: 0.0005 to 0.063 µg/mL (≈ 0.000548 to 0.069 µM)
[8]
  MIC: 2 to 32 µg/mL (≈ 2.19 to 35 µM)
[9]
  MIC: 0.03 to 2 µg/mL (≈ 0.0329 to 2.19 µM)
[10]
  MIC: 0.125 to 8 µg/mL (≈ 0.137 to 8.76 µM)
[11]
  MIC: 0.5 to 64 µg/mL (≈ 0.548 to 70.1 µM)

## CO[C@H]1/C=C/O[C@@]2(C)Oc3c(C)c(O)c4c(c3/C2=N/OCCN2CCN(c3ccccc3O)CC2)C(=O)C=C(NC(=O)/C(C)=C\C=C\[C@H](C)[C@H](O)[C@@H](C)[C@@H](O)[C@@H](C)[C@H](OC(C)=O)[C@@H]1C)C4=O [Example 26, 11-Deoxy-11-{2-[4-(2-hydroxy-phenyl)piperazin-1-yl]ethoxyimino}rifamycin S]
[1]
  MIC: 0.004 to 0.5 µg/mL (≈ 0.00437 to 0.546 µM)
[2]
  MIC: 0.25 to 32 µg/mL (≈ 0.273 to 35 µM)
[3]
  MIC: 0.125 to 16 µg/mL (≈ 0.137 to 17.5 µM)
[4]
  MIC: 0.004 to 0.5 µg/mL (≈ 0.00437 to 0.546 µM)
[5]
  MIC: 0.0005 to 0.063 µg/mL (≈ 0.000546 to 0.0688 µM)
[6]
  MIC: 0.0002 to 0.125 µg/mL (≈ 0.000219 to 0.137 µM)
[7]
  MIC: 0.0005 to 0.063 µg/mL (≈ 0.000546 to 0.0688 µM)
[8]
  MIC: 2 to 32 µg/mL (≈ 2.19 to 35 µM)
[9]
  MIC: 0.03 to 2 µg/mL (≈ 0.0328 to 2.19 µM)
[10]
  MIC: 0.125 to 8 µg/mL (≈ 0.137 to 8.74 µM)
[11]
  MIC: 0.5 to 64 µg/mL (≈ 0.546 to 69.9 µM)

## CO[C@H]1/C=C/O[C@@]2(C)Oc3c(C)c(O)c4c(c3/C2=N/O)C(=O)C(CO)=C(NC(=O)/C(C)=C\C=C\[C@H](C)[C@H](O)[C@@H](C)[C@@H](O)[C@@H](C)[C@H](OC(C)=O)[C@@H]1C)C4=O [Example 27]
[1]
  MIC: 0.004 to 0.5 µg/mL (≈ 0.0054 to 0.675 µM)
[2]
  MIC: 0.25 to 32 µg/mL (≈ 0.337 to 43.2 µM)
[3]
  MIC: 0.125 to 16 µg/mL (≈ 0.169 to 21.6 µM)
[4]
  MIC: 0.004 to 0.5 µg/mL (≈ 0.0054 to 0.675 µM)
[5]
  MIC: 0.0005 to 0.063 µg/mL (≈ 0.000675 to 0.085 µM)
[6]
  MIC: 0.0002 to 0.125 µg/mL (≈ 0.00027 to 0.169 µM)
[7]
  MIC: 0.0005 to 0.063 µg/mL (≈ 0.000675 to 0.085 µM)
[8]
  MIC: 2 to 32 µg/mL (≈ 2.7 to 43.2 µM)
[9]
  MIC: 0.03 to 2 µg/mL (≈ 0.0405 to 2.7 µM)
[10]
  MIC: 0.125 to 8 µg/mL (≈ 0.169 to 10.8 µM)
[11]
  MIC: 0.5 to 64 µg/mL (≈ 0.675 to 86.4 µM)

## CO[C@H]1/C=C/O[C@@]2(C)Oc3c(C)c(O)c4c(c3/C2=N/OCC(=O)O)C(=O)C(N2CCOCC2)=C(NC(=O)/C(C)=C\C=C\[C@H](C)[C@H](O)[C@@H](C)[C@@H](O)[C@@H](C)[C@H](OC(C)=O)[C@@H]1C)C4=O [Example 28, 11-Deoxy-3-(morpholin-4-yl)-11-(4-carboxymethoxyimino)-rifamycin S]
[1]
  MIC: 0.004 to 0.5 µg/mL (≈ 0.00468 to 0.586 µM)
[2]
  MIC: 0.25 to 32 µg/mL (≈ 0.293 to 37.5 µM)
[3]
  MIC: 0.125 to 16 µg/mL (≈ 0.146 to 18.7 µM)
[4]
  MIC: 0.004 to 0.5 µg/mL (≈ 0.00468 to 0.586 µM)
[5]
  MIC: 0.0005 to 0.063 µg/mL (≈ 0.000586 to 0.0738 µM)
[6]
  MIC: 0.0002 to 0.125 µg/mL (≈ 0.000234 to 0.146 µM)
[7]
  MIC: 0.0005 to 0.063 µg/mL (≈ 0.000586 to 0.0738 µM)
[8]
  MIC: 2 to 32 µg/mL (≈ 2.34 to 37.5 µM)
[9]
  MIC: 0.03 to 2 µg/mL (≈ 0.0351 to 2.34 µM)
[10]
  MIC: 0.125 to 8 µg/mL (≈ 0.146 to 9.37 µM)
[11]
  MIC: 0.5 to 64 µg/mL (≈ 0.586 to 74.9 µM)

## CO[C@H]1/C=C/O[C@@]2(C)Oc3c(C)c(O)c4c(c3/C2=N/OCC(=O)N2CCN(c3cc5c(cc3F)c(=O)c(C(=O)O)cn5C3CC3)CC2)C(=O)C(N2CCOCC2)=C(NC(=O)/C(C)=C\C=C\[C@H](C)[C@H](O)[C@@H](C)[C@@H](O)[C@@H](C)[C@H](OC(C)=O)[C@@H]1C)C4=O [Example 29, 11-Deoxy-3-(morpholin-4-yl)-11-{2-oxo-2-[4-(3-carboxy-1-cyclopropl-6-fluoro-4-oxo-1,4-dihydroquinolin-7-yl)piperazin-1-yl]ethoxyimino}rifamycin S]
[1]
  MIC: 0.004 to 0.5 µg/mL (≈ 0.00343 to 0.428 µM)
[2]
  MIC: 0.25 to 32 µg/mL (≈ 0.214 to 27.4 µM)
[3]
  MIC: 0.125 to 16 µg/mL (≈ 0.107 to 13.7 µM)
[4]
  MIC: 0.004 to 0.5 µg/mL (≈ 0.00343 to 0.428 µM)
[5]
  MIC: 0.0005 to 0.063 µg/mL (≈ 0.000428 to 0.054 µM)
[6]
  MIC: 0.0002 to 0.125 µg/mL (≈ 0.000171 to 0.107 µM)
[7]
  MIC: 0.0005 to 0.063 µg/mL (≈ 0.000428 to 0.054 µM)
[8]
  MIC: 2 to 32 µg/mL (≈ 1.71 to 27.4 µM)
[9]
  MIC: 0.03 to 2 µg/mL (≈ 0.0257 to 1.71 µM)
[10]
  MIC: 0.125 to 8 µg/mL (≈ 0.107 to 6.85 µM)
[11]
  MIC: 0.5 to 64 µg/mL (≈ 0.428 to 54.8 µM)
